Experiments:
Type in all cases: in vivo
Settings in all cases: Rate 1000 g/ha; evaluated after 13 days
[1] = test system: Oryza sativa (ORYSA); experiment: B2 post-emergence herbicidal activity
Protocol: (§1) Seeds of a variety of test species were sown in standard soil in pots: Triticum aestivium (TRZAW), Oryza sativa (ORYSA), Avena fatua (AVEFA), Alopecurus myosuroides (ALOMY), Echinochloa crus-galli (ECHCG), Lolium perenne (LOLPE). After 8 days cultivation (post-emergence) under controlled conditions in a glasshouse (at 24/16° C., day/night; 14 hours light; 65% humidity), the plants were sprayed with an aqueous spray solution derived from the formulation of the technical active ingredient in acetone/water (50:50) solution containing 0.5% Tween 20 (polyoxyethelyene sorbitan monolaurate, CAS RN 9005-64-5). The test plants were then grown in a glasshouse under controlled conditions (at 24/16° C., day/night; 14 hours light; 65% humidity) and watered twice daily. After 13 days, the test was evaluated (5=total damage to plant; 0=no damage to plant).

[2] = test system: Lolium perenne (LOLPE); experiment: B2 post-emergence herbicidal activity
Protocol: as §1

[3] = test system: Alopecurus myosuroides (ALOMY); experiment: B2 post-emergence herbicidal activity
Protocol: as §1

[4] = test system: Triticum aestivium (TRZAW); experiment: B2 post-emergence herbicidal activity
Protocol: as §1

[5] = test system: Avena fatua (AVEFA); experiment: B2 post-emergence herbicidal activity
Protocol: as §1

[6] = test system: Echinochloa crus-galli (ECHCG); experiment: B2 post-emergence herbicidal activity
Protocol: as §1

[7] = test system: Oryza sativa (ORYSA); experiment: B1 pre-emergence herbicidal activity
Protocol: as §1, with “After” for “After 8 days”, “for one day (pre-emergence)” for “(post-emergence)”

[8] = test system: Lolium perenne (LOLPE); experiment: B1 pre-emergence herbicidal activity
Protocol: as §1, with “After” for “After 8 days”, “for one day (pre-emergence)” for “(post-emergence)”

[9] = test system: Alopecurus myosuroides (ALOMY); experiment: B1 pre-emergence herbicidal activity
Protocol: as §1, with “After” for “After 8 days”, “for one day (pre-emergence)” for “(post-emergence)”

[10] = test system: Triticum aestivium (TRZAW); experiment: B1 pre-emergence herbicidal activity
Protocol: as §1, with “After” for “After 8 days”, “for one day (pre-emergence)” for “(post-emergence)”

[11] = test system: Avena fatua (AVEFA); experiment: B1 pre-emergence herbicidal activity
Protocol: as §1, with “After” for “After 8 days”, “for one day (pre-emergence)” for “(post-emergence)”

[12] = test system: Echinochloa crus-galli (ECHCG); experiment: B1 pre-emergence herbicidal activity
Protocol: as §1, with “After” for “After 8 days”, “for one day (pre-emergence)” for “(post-emergence)”

Row | Compound | Control of ORYSA after post-emergence application (damage score 0-5) [1] | Control of LOLPE after post-emergence application (damage score 0-5) [2] | Control of ALOMY after post-emergence application (damage score 0-5) [3] | Control of TRZAW after post-emergence application (damage score 0-5) [4] | Control of AVEFA after post-emergence application (damage score 0-5) [5] | Control of ECHCG after post-emergence application (damage score 0-5) [6] | Control of ORYSA after pre-emergence application (damage score 0-5) [7] | Control of LOLPE after pre-emergence application (damage score 0-5) [8] | Control of ALOMY after pre-emergence application (damage score 0-5) [9] | Control of TRZAW after pre-emergence application (damage score 0-5) [10] | Control of AVEFA after pre-emergence application (damage score 0-5) [11] | Control of ECHCG after pre-emergence application (damage score 0-5) [12]
1 | COC(=O)N(C)c1cn(-c2cncc(F)c2)nc1C(F)(F)F [Compound A27] | 1 | 2 | 0 | 1 | 3 | 4 | 0 | 0 | 0 | 0 | 0 | 2
2 | CN(C(=O)OC(C)(C)C)c1c(Cl)c(-c2cccnc2)nn1C [Compound A39] | 1 | 3 | 2 | 0 | 1 | 4 | 1 | 0 | 0 | 0 | 4 | 3
3 | Cc1nn(-c2cncnc2)cc1N(C)C(=O)NC1CCCCC1 [Compound A44] | 0 | 2 | 1 | 0 | 3 | 1 | 1 | 1 | 0 | 1 | 1 | 1
4 | CN(C(=O)Oc1ccccc1)c1cn(-c2cncc(F)c2)nc1C(F)(F)F [Compound A46] | 0 | 1 | 0 | 0 | 2 | 2 | 0 | 0 | 0 | 0 | 0 | 0
5 | CCOC(=O)N(C)c1cn(-c2cncc(F)c2)nc1C(F)(F)F [Compound A47] | 0 | 0 | 1 | 1 | 2 | 4 | 0 | 0 | 0 | 0 | 0 | 1
6 | CN(C(=O)OC(C)(C)C)c1cn(-c2cncc(F)c2)nc1C(F)(F)F [Compound A48] | 1 | 2 | 1 | 1 | 3 | 4 | 1 | 1 | 1 | 1 | 0 | 3
7 | CN(C(=O)N(C)C(C)(C)C)c1cn(-c2cncnc2)nc1C(F)(F)F [Compound A51] | 0 | 1 | 1 | 2 | 2 | 2 | 1 | 0 | 0 | 0 | 0 | 1
8 | Cc1nn(-c2cncnc2)cc1N(C)C(=O)Nc1ccc(C#N)cc1 [Compound A52] | 0 | 0 | 0 | 0 | 0 | 0 | 0 | 0 | 0 | 0 | 0 | 0
9 | Cc1nn(-c2cncnc2)cc1N(C)C1=NCCCCO1 [Compound A53] | 0 | 1 | 0 | 0 | 0 | 0 | 0 | 0 | 0 | 0 | 0 | 0
10 | C=CCN(C(=O)OC(C)(C)C)c1cn(-c2cncc(F)c2)nc1C [Compound A54] | 0 | 1 | 1 | 0 | 1 | 1 | 0 | 0 | 0 | 0 | 0 | 0
11 | CCN(C(=O)OC(C)(C)C)c1cn(-c2cncc(F)c2)nc1C(F)(F)F [Compound A55] | 0 | 0 | 0 | 0 | 0 | 0 | 0 | 0 | 0 | 0 | 0 | 0
